One assay has as its system MOLM-13 cells. Put plainly: Cell viability assay (CellTiter-Glo) in MOLM-13 cells, alone or with gilteritinib. Conditions: Homo sapiens, MOLM-13 cells, CellTiter-Glo. Type of assay: cell-based.
Another assay deals with MV4;11 cells. Put plainly: Cell viability assay (CellTiter-Glo) in MV4;11 cells, alone or with gilteritinib. The note with it: Homo sapiens, MV4;11 cells, CellTiter-Glo, read-out: MV4. The format is cell-based. (ATP-based viability assays read luminescence as a measure of living cells.)
Setting [1] is: MOLM-13, 72 h, compound alone (without gilteritinib), three days, read-out: MOLM-13 IC50.
Where [2] appears, read: MOLM-13, 72 h, with gilteritinib 20 nM, three days, read-out: MOLM-13 IC50 gilteritinib.
Setting [3] is: MV4-11, 72 h, compound alone (without gilteritinib), three days, 11 IC50.
The mark [4] stands for this setting: MV4-11, 72 h, with gilteritinib 10 nM, three days, 11 IC50 gilteritinib.
The mark [5] stands for this setting: MOLM-13, 72 h, compound with gilteritinib 20 nM, three days, read-out: MOLM-13 IC50 gilteritinib.
The mark [6] stands for this setting: MV4-11, 72 h, compound with gilteritinib 10 nM, three days, 11 IC50 gilteritinib.

Like-named read-outs stand apart in the source and are kept apart here.

Regarding `O=C1CCC(N2C(=O)c3ccc(NC[C@H]4C[C@H](n5cc(-c6ccc(Cl)cn6)c(C6CC6)n5)C4)cc3C2=O)C(=O)N1` (stereo partly drawn) [GS-255, 5-(((trans-3-(4-(5-Chloropyridin-2-yl)-3-cyclopropyl-1H-pyrazol-1-yl)cyclobutyl)methyl)amino)-2-(2,6-dioxopiperidin-3-yl)isoindoline-1,3-dione], the IC50 in the assay on MOLM-13 cells (setting [1]) was 100 to 1000 nM; with MOLM-13 cells (setting [2]), less than 10 nM; in the assay on MV4;11 cells (setting [3]), 10 to 100 nM; in the assay with MV4;11 cells (setting [4]) it was less than 10 nM.
With `O=C1CCC(N2C(=O)c3ccc(NCCCc4ccc(F)c(N5CCC(c6ccccc6)CC5)c4)cc3C2=O)C(=O)N1` (stereo not drawn) [GS-506, 2-(2,6-Dioxopiperidin-3-yl)-5-((3-(4-fluoro-3-(4-phenylpiperidin-1-yl)phenyl)propyl)amino)isoindoline-1,3-dione], the IC50 with MOLM-13 cells (72 h, compound alone (without gilteritinib), three days, read-out: MOLM-13 IC50) was more than 1000 nM; with MOLM-13 cells (72 h, compound with gilteritinib 20 nM, three days, read-out: MOLM-13 IC50 gilteritinib) it was 100 to 1000 nM; with MV4;11 cells (72 h, compound alone (without gilteritinib), three days, 11 IC50), more than 1000 nM; with MV4;11 cells (72 h, compound with gilteritinib 10 nM, three days, 11 IC50 gilteritinib), more than 1000 nM.
Consider `O=C1CCC(N2C(=O)c3ccc(NCCC[C@H]4C[C@H](n5cc(-c6cnc7c(C8CCNCC8)cccc7n6)cn5)C4)cc3C2=O)C(=O)N1` (stereo partly drawn) [GS-431, 2-(2,6-dioxopiperidin-3-yl)-5-((3-(trans-3-(4-(5-(piperidin-4-yl)quinoxalin-2-yl)-1H-pyrazol-1-yl)cyclobutyl)propyl)amino)isoindoline-1,3-dione], for which the IC50 was 10 to 100 nM in the assay on MOLM-13 cells (setting [1]), less than 10 nM in the assay with MOLM-13 cells (setting [5]), less than 10 nM with MV4;11 cells (setting [3]) and less than 10 nM with MV4;11 cells (setting [6]).
Take `O=C1CCC(N2C(=O)c3ccc(NC[C@H]4C[C@H](n5cc(-c6ccc7c(n6)CCCC7)c(C6CC6)n5)C4)cc3C2=O)C(=O)N1` (stereo partly drawn) [GS-308, 5-(((trans-3-(3-Cyclopropyl-4-(5,6,7,8-tetrahydroquinolin-2-yl)-1H-pyrazol-1-yl)cyclobutyl)methyl)amino)-2-(2,6-dioxopiperidin-3-yl)isoindoline-1,3-dione]: the IC50 with MOLM-13 cells (setting [1]) is 10 to 100 nM; in the assay on MOLM-13 cells (setting [2]), less than 10 nM; in the assay on MV4;11 cells (setting [3]) it was 10 to 100 nM; in the assay with MV4;11 cells (setting [4]) it was less than 10 nM.
For `CN1CCC(c2cccc(-c3cnn([C@H]4C[C@H](CCCNc5ccc6c(c5)C(=O)N(C5CCC(=O)NC5=O)C6=O)C4)c3)n2)CC1` (stereo partly drawn) [GS-237, 2-(2,6-Dioxopiperidin-3-yl)-5-((3-(trans-3-(4-(6-(1-methylpiperidin-4-yl)pyridin-2-yl)-1H-pyrazol-1-yl)cyclobutyl)propyl)amino)isoindoline-1,3-dione], the IC50 with MOLM-13 cells (setting [1]) is more than 1000 nM; in the assay on MOLM-13 cells (setting [2]), 100 to 1000 nM; in the assay on MV4;11 cells (setting [3]) it was more than 1000 nM; in the assay on MV4;11 cells (setting [4]), 100 to 1000 nM.
Take `O=C1CCC(N2C(=O)c3ccc(NC[C@H]4C[C@H](n5cc(-c6ncccc6OC(F)(F)F)c(C6CC6)n5)C4)cc3C2=O)C(=O)N1` (stereo partly drawn) [GS-287, 5-(((trans-3-(3-Cyclopropyl-4-(3-(trifluoromethoxy)pyridin-2-yl)-1H-pyrazol-1-yl)cyclobutyl)methyl)amino)-2-(2,6-dioxopiperidin-3-yl)isoindoline-1,3-dione]: the IC50 in the assay with MOLM-13 cells (setting [1]), in the assay with MOLM-13 cells (setting [2]), in the assay on MV4;11 cells (setting [3]) and with MV4;11 cells (setting [4]) was less than 10 nM throughout.
In the case of `O=C1CCC(N2C(=O)c3ccc(NC[C@H]4C[C@H](n5cc(-c6cc(N7CCNCC7)ccn6)c(C6CC6)n5)C4)cc3C2=O)C(=O)N1` (stereo partly drawn) [GS-607, 5-(((trans-3-(3-Cyclopropyl-4-(4-(piperazin-1-yl)pyridin-2-yl)-1H-pyrazol-1-yl)cyclobutyl)methyl)amino)-2-(2,6-dioxopiperidin-3-yl)isoindoline-1,3-dione], the IC50 with MOLM-13 cells (setting [1]), with MOLM-13 cells (setting [5]), with MV4;11 cells (setting [3]) and with MV4;11 cells (setting [6]) was more than 1000 nM throughout.
In the case of `O=C1CCC(N2C(=O)c3ccc(NCCC[C@H]4C[C@H](n5cc(-c6cccc(C7CCNCC7)n6)cn5)C4)cc3C2=O)C(=O)N1` (stereo partly drawn) [GS-238, 2-(2,6-Dioxopiperidin-3-yl)-5-((3-(trans-3-(4-(6-(piperidin-4-yl)pyridin-2-yl)-1H-pyrazol-1-yl)cyclobutyl)propyl)amino)isoindoline-1,3-dione], the IC50 fell in the range of 10 to 100 nM in the assay with MOLM-13 cells (setting [1]), 10 to 100 nM in the assay on MOLM-13 cells (setting [2]), 100 to 1000 nM with MV4;11 cells (setting [3]) and 10 to 100 nM in the assay with MV4;11 cells (setting [4]).
Take `O=C1CCC(N2Cc3cc(CNC(=O)C(F)(F)CCC(=O)N4CCC(n5cc(-c6cnc7ccccc7n6)cn5)CC4)ccc3C2=O)C(=O)N1` (stereo not drawn) [GS-533, N-((2-(2,6-dioxopiperidin-3-yl)-1-oxoisoindolin-5-yl)methyl)-2,2-difluoro-5-oxo-5-(4-(4-(quinoxalin-2-yl)-1H-pyrazol-1-yl)piperidin-1-yl)pentanamide]: the IC50 was more than 1000 nM in the assay on MOLM-13 cells (setting [1]), more than 1000 nM with MOLM-13 cells (setting [5]), 100 to 1000 nM in the assay with MV4;11 cells (setting [3]) and 10 to 100 nM with MV4;11 cells (setting [6]).
Consider `CCc1nc(C(N)=O)c(Nc2ccc(N3CCC(N4CCN(C)CC4)CC3)c(OC)c2)nc1NC1CCOCC1` [gilteritinib, reference compound], for which the IC50 in the assay on MOLM-13 cells (MOLM-13, 72 h, without gilteritinib, 3 days, read-out: MOLM-13 IC50) came out at 7 nM; with MV4;11 cells (MV4-11, 72 h, without gilteritinib, 3 days, 11 IC50), 2.3 nM.
For the compound `Cc1cccc(-c2ccn([C@H]3C[C@H](CNc4ccc5c(c4)C(=O)N(C4CCC(=O)NC4=O)C5=O)C3)n2)n1` (stereo partly drawn) [GS-065, 2-(2,6-Dioxopiperidin-3-yl)-5-(((trans-3-(3-(6-methylpyridin-2-yl)-1H-pyrazol-1-yl)cyclobutyl)methyl)amino)isoindoline-1,3-dione], the IC50 in the assay on MOLM-13 cells (setting [1]), in the assay with MOLM-13 cells (setting [2]), in the assay on MV4;11 cells (setting [3]) and in the assay with MV4;11 cells (setting [4]) was more than 1000 nM in each case.
On to `O=C1CCC(N2C(=O)c3ccc(NCCC[C@H]4C[C@H](n5cc(-c6cnc7ccc(N8C[C@H]9C[C@@H]8CO9)cc7n6)cn5)C4)cc3C2=O)C(=O)N1` (stereo partly drawn) [GS-410, 5-((3-(trans-3-(4-(7-((1R,4R)-2-oxa-5-azabicyclo[2.2.1]heptan-5-yl)quinoxalin-2-yl)-1H-pyrazol-1-yl)cyclobutyl)propyl)amino)-2-(2,6-dioxopiperidin-3-yl)isoindoline-1,3-dione], for which the IC50 with MOLM-13 cells (setting [1]) was 10 to 100 nM; with MOLM-13 cells (setting [2]) it was less than 10 nM; in the assay with MV4;11 cells (setting [3]), 10 to 100 nM; in the assay on MV4;11 cells (setting [4]), less than 10 nM.
With `O=C1CCC(N2C(=O)c3ccc(NCC4CC(C(=O)N5CCC(n6cc(-c7cnc8ccccc8n7)cn6)CC5)C4)cc3C2=O)C(=O)N1` (stereo not drawn) [GS-192, 2-(2,6-Dioxopiperidin-3-yl)-5-(((3-(4-(4-(quinoxalin-2-yl)-1H-pyrazol-1-yl)piperidine-1-carbonyl)cyclobutyl)methyl)amino)isoindoline-1,3-dione], the IC50 with MOLM-13 cells (setting [1]) was more than 1000 nM; in the assay on MOLM-13 cells (setting [2]) it was 10 to 100 nM; with MV4;11 cells (setting [3]), 100 to 1000 nM; in the assay on MV4;11 cells (setting [4]) it was 10 to 100 nM.
Consider `Cc1nn(CCCCCCNc2ccc3c(c2)C(=O)N(C2CCC(=O)NC2=O)C3=O)c(C)c1-c1cnccn1` (stereo not drawn) [GS-146, 5-((6-(3,5-Dimethyl-4-(pyrazin-2-yl)-1H-pyrazol-1-yl)hexyl)amino)-2-(2,6-dioxopiperidin-3-yl)isoindoline-1,3-dione], for which the IC50 was 100 to 1000 nM in the assay with MOLM-13 cells (setting [1]), 10 to 100 nM with MOLM-13 cells (setting [2]), more than 1000 nM with MV4;11 cells (setting [3]) and 10 to 100 nM in the assay on MV4;11 cells (setting [4]).
With `O=C1CCC(N2C(=O)c3ccc(NCCC[C@H]4C[C@H](n5cc(-c6cccc(N7CCOCC7)n6)c(C6CC6)n5)C4)cc3C2=O)C(=O)N1` (stereo partly drawn) [GS-246, 5-((3-(trans-3-(3-Cyclopropyl-4-(6-morpholinopyridin-2-yl)-1H-pyrazol-1-yl)cyclobutyl)propyl)amino)-2-(2,6-dioxopiperidin-3-yl)isoindoline-1,3-dione], the IC50 is more than 1000 nM in the assay with MOLM-13 cells (setting [1]), 100 to 1000 nM in the assay with MOLM-13 cells (setting [2]), 100 to 1000 nM in the assay with MV4;11 cells (setting [3]) and 10 to 100 nM in the assay on MV4;11 cells (setting [4]).
For the compound `CN1CCN(c2ccc3ncc(-c4cnn([C@H]5C[C@@H](CNc6ccc7c(c6)C(=O)N(C6CCC(=O)NC6=O)C7=O)C5)c4)nc3c2)CC1` (stereo partly drawn) [GS-190, 2-(2,6-Dioxopiperidin-3-yl)-5-(((cis-3-(4-(7-(4-methylpiperazin-1-yl)quinoxalin-2-yl)-1H-pyrazol-1-yl)cyclobutyl)methyl)amino)isoindoline-1,3-dione], the IC50 in the assay on MOLM-13 cells (setting [1]) was more than 1000 nM; with MOLM-13 cells (setting [2]), 100 to 1000 nM; in the assay on MV4;11 cells (setting [3]), more than 1000 nM; with MV4;11 cells (setting [4]), more than 1000 nM.
In the case of `Cc1nn([C@H]2C[C@H](CCCNc3ccc4c(c3)C(=O)N(C3CCC(=O)N(C)C3=O)C4=O)C2)cc1-c1cnc2ccccc2n1` (stereo partly drawn) [GS-639, 2-(1-Methyl-2,6-dioxopiperidin-3-yl)-5-((3-(trans-3-(3-methyl-4-(quinoxalin-2-yl)-1H-pyrazol-1-yl)cyclobutyl)propyl)amino)isoindoline-1,3-dione], the IC50 in the assay with MOLM-13 cells (setting [1]), with MOLM-13 cells (setting [5]), in the assay with MV4;11 cells (setting [3]) and in the assay on MV4;11 cells (setting [6]) was more than 1000 nM each time.

The record behind these values is patent publication US20240050428A1 (Cullgen (Shanghai), Inc., priority 2020, published 2024).
